The term inhibition denotes the change of the read-out against control, counted positive when it falls.

Drawing on PMC6934184, “Selective DNA-PKcs inhibition extends the therapeutic index of localized radiotherapy and chemotherapy” (The Journal of Clinical Investigation, 2019), this text covers inhibition for one compound.

The target in the assay is T1, RPS6KB1 (p70S6K) (Homo sapiens, UniProt P23443).
T1 construct: purchased Thermo Fisher Scientific (Life Technologies) SelectScreen
Kind of assay: SelectScreen Z'LYTE. It counts as biochemical. A digest of the protocol: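 NU5455 was profiled across the SelectScreen Broad panel of kinase activity and binding assays. Z'LYTE reactions such as CSF1R ran at apparent Km ATP, while the Adapta CAMK1 assay used ATP listed as 10. Values are given as percent.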

T1 sequence (P23443 whole entry): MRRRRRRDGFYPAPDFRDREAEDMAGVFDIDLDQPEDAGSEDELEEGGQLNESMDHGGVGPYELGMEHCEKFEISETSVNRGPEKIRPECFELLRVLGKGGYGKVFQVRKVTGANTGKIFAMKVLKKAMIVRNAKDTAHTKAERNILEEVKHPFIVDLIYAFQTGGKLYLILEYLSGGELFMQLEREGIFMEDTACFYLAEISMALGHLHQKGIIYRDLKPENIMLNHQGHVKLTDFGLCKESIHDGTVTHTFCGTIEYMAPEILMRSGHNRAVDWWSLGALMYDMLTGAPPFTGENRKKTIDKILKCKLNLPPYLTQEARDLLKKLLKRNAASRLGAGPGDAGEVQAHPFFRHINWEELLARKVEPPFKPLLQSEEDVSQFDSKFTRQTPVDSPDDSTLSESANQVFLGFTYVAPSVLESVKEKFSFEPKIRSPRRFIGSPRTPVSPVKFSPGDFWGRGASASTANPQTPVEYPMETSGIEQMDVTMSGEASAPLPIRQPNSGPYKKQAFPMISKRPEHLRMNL

Take `CN(C(=O)CN1CCOCC1)c1ccc2sc3c(-c4cccc5c(=O)cc(N6CC7CCC(C6)O7)oc45)cccc3c2c1` [NU5455]: the inhibition at 1 µM was -7.8%.
